According to ChEMBL document CHEMBL1671662, “In vitro activities of telavancin and six comparator agents against anaerobic bacterial isolates” (2009):

Experiments:
Clostridium spiroforme = experiment: Antibacterial activity against Clostridium spiroforme by CLSI M11-A6 agar dilution method; format: functional; settings: Thomasclavelia spiroformis
Flavonifractor plautii = experiment: Antibacterial activity against Clostridium orbiscindens by CLSI M11-A6 agar dilution method; format: functional
[1] = tested on: Prevotella melaninogenica; experiment: Antibacterial activity against Prevotella melaninogenica by CLSI M11-A6 agar dilution method; format: functional
[2] = tested on: Ruminococcus flavefaciens; experiment: Antibacterial activity against Ruminococcus flavefaciens by CLSI M11-A6 agar dilution method; format: functional
Clostridium butyricum = experiment: Antibacterial activity against Clostridium butyricum by CLSI M11-A6 agar dilution method; format: functional
Bacteroides fragilis = experiment: Antibacterial activity against Bacteroides fragilis by CLSI M11-A6 agar dilution method; format: functional
[3] = tested on: Streptococcus intermedius; experiment: Antibacterial activity against Streptococcus intermedius by CLSI M11-A6 agar dilution method; format: functional
[4] = tested on: Clostridium celerecrescens; experiment: Antibacterial activity against Clostridium celerecrescens by CLSI M11-A6 agar dilution method; format: functional; settings: Lacrimispora celerecrescens
Clostridium hathewayi = experiment: Antibacterial activity against Clostridium hathewayi by CLSI M11-A6 agar dilution method; format: functional; settings: Hungatella hathewayi
Anaerococcus tetradius = experiment: Antibacterial activity against Anaerococcus tetradius by CLSI M11-A6 agar dilution method; format: functional
[5] = tested on: Peptostreptococcus anaerobius; experiment: Antibacterial activity against Peptostreptococcus anaerobius by CLSI M11-A6 agar dilution method; format: functional
Clostridium perfringens = experiment: Antibacterial activity against Clostridium perfringens by CLSI M11-A6 agar dilution method; format: functional
Coriobacterium = experiment: Antibacterial activity against […] by CLSI M11-A6 agar dilution method; format: functional
[6] = tested on: Propionibacterium propionicum; experiment: Antibacterial activity against Propionibacterium propionicus by CLSI M11-A6 agar dilution method; format: functional; settings: Arachnia propionica
Collinsella aerofaciens = experiment: Antibacterial activity against Colinsella aerofaciens by CLSI M11-A6 agar dilution method; format: functional
Prevotella intermedia = experiment: Antibacterial activity against Prevotella intermedia by CLSI M11-A6 agar dilution method; format: functional
Odoribacter splanchnicus = experiment: Antibacterial activity against Bacteroides splanchnicus by CLSI M11-A6 agar dilution method; format: functional
Clostridium scindens = experiment: Antibacterial activity against Clostridium scindens by CLSI M11-A6 agar dilution method; format: functional
[7] = tested on: Peptoniphilus asaccharolyticus; experiment: Antibacterial activity against Peptoniphilus asaccharolyticus by CLSI M11-A6 agar dilution method; format: functional
[8] = tested on: Catenibacterium mitsuokai; experiment: Antibacterial activity against Catenibacterium mitsuokai by CLSI M11-A6 agar dilution method; format: functional
Fusobacterium varium = experiment: Antibacterial activity against Fusobacterium varium by CLSI M11-A6 agar dilution method; format: functional
Bifidobacterium longum = experiment: Antibacterial activity against Bifidobacterium longum by CLSI M11-A6 agar dilution method; format: functional
[9] = tested on: Bifidobacterium adolescentis; experiment: Antibacterial activity against Bifidobacterium adolescentis by CLSI M11-A6 agar dilution method; format: functional
Clostridium sporogenes = experiment: Antibacterial activity against Clostridium sporogenes by CLSI M11-A6 agar dilution method; format: functional
[10] = tested on: Streptococcus constellatus; experiment: Antibacterial activity against Streptococcus constellatus by CLSI M11-A6 agar dilution method; format: functional
Clostridium tertium = experiment: Antibacterial activity against Clostridium tertium by CLSI M11-A6 agar dilution method; format: functional
[11] = tested on: Coprobacillus cateniformis; experiment: Antibacterial activity against Coprobacillus cateniformis by CLSI M11-A6 agar dilution method; format: functional
Bilophila wadsworthia = experiment: Antibacterial activity against Bilophila wadsworthia by CLSI M11-A6 agar dilution method; format: functional
Prevotella denticola = experiment: Antibacterial activity against Prevotella P denticola by CLSI M11-A6 agar dilution method; format: functional
Hoylesella oralis = experiment: Antibacterial activity against Prevotella oralis by CLSI M11-A6 agar dilution method; format: functional
Bifidobacterium breve = experiment: Antibacterial activity against Bifidobacterium breve by CLSI M11-A6 agar dilution method; format: functional
[12] = tested on: Sutterella wadsworthensis; experiment: Antibacterial activity against Sutterella wadsworthensis by CLSI M11-A6 agar dilution method; format: functional
Clostridium leptum = experiment: Antibacterial activity against Clostridium leptum by CLSI M11-A6 agar dilution method; format: functional
Bacteroides ovatus = experiment: Antibacterial activity against Bacteroides ovatus by CLSI M11-A6 agar dilution method; format: functional
Parabacteroides merdae = experiment: Antibacterial activity against Parabacteroides merdae by CLSI M11-A6 agar dilution method; format: functional
[13] = Antibacterial activity against Bifidobacterium infantis by CLSI M11-A6 agar dilution method; format: functional, Bifidobacterium longum subsp. infantis; settings: Bifidobacterium longum
Clostridioides difficile = experiment: Antibacterial activity against Clostridium difficile by CLSI M11-A6 agar dilution method; format: functional
Ruminococcus obeum = experiment: Antibacterial activity against Ruminococcus obeum by CLSI M11-A6 agar dilution method; format: functional; settings: Blautia obeum
Clostridium sp. = experiment: Antibacterial activity against Clostridium sp. by CLSI M11-A6 agar dilution method; format: functional
Eggerthella lenta = experiment: Antibacterial activity against Eggerthella lenta by CLSI M11-A6 agar dilution method; format: functional
Prevotella buccae = experiment: Antibacterial activity against Prevotella buccae by CLSI M11-A6 agar dilution method; format: functional; settings: Segatella buccae
Finegoldia magna = experiment: Antibacterial activity against Finegoldia magna by CLSI M11-A6 agar dilution method; format: functional
Blautia producta = experiment: Antibacterial activity against Ruminococcus productus by CLSI M11-A6 agar dilution method; format: functional

CCCCCCCCCCNCCN[C@@]1(C)C[C@H](O[C@H]2[C@H](Oc3c4cc5cc3Oc3ccc(cc3Cl)[C@@H](O)[C@@H](NC(=O)[C@@H](CC(C)C)NC)C(=O)N[C@@H](CC(N)=O)C(=O)N[C@H]5C(=O)N[C@H]3C(=O)N[C@H](C(=O)N[C@H](C(=O)O)c5cc(O)c(CNCP(=O)(O)O)c(O)c5-c5cc3ccc5O)[C@H](O)c3ccc(c(Cl)c3)O4)O[C@H](CO)[C@@H](O)[C@@H]2O)O[C@@H](C)[C@H]1O [TELAVANCIN]
0.5 µg/mL: MIC50 (Clostridium hathewayi) | MIC90 (Coriobacterium) | MIC90 [6] | MIC90 (Collinsella aerofaciens) | MIC90 [8] | MIC90 (Bifidobacterium longum) | MIC90 [9] | MIC90 [11] | MIC90 (Bifidobacterium breve) | MIC90 [13] | MIC90 (Eggerthella lenta)
0.25 µg/mL: MIC90 (Clostridium spiroforme) | MIC90 (Flavonifractor plautii) | MIC90 (Clostridium butyricum) | MIC90 [4] | MIC90 (Anaerococcus tetradius) | MIC90 [5] | MIC90 (Clostridium perfringens) | MIC90 (Clostridium scindens) | MIC90 [7] | MIC90 (Clostridium sporogenes) | MIC90 (Clostridium tertium) | MIC90 (Clostridium leptum) | MIC50 (Clostridioides difficile) | MIC90 (Clostridioides difficile) | MIC90 (Clostridium sp.) | MIC90 (Finegoldia magna)
64 µg/mL: MIC90 [1] | MIC90 (Prevotella intermedia) | MIC90 (Prevotella denticola) | MIC90 (Hoylesella oralis) | MIC90 (Prevotella buccae)
> 64 µg/mL: MIC (Bacteroides fragilis) | MIC50 (Bacteroides fragilis) | MIC90 (Bacteroides fragilis) | MIC50 (Odoribacter splanchnicus) | MIC90 (Odoribacter splanchnicus) | MIC50 (Fusobacterium varium) | MIC90 (Fusobacterium varium) | MIC (Bilophila wadsworthia) | MIC50 (Bilophila wadsworthia) | MIC90 (Bilophila wadsworthia) | MIC [12] | MIC50 [12] | MIC90 [12] | MIC (Bacteroides ovatus) | MIC50 (Bacteroides ovatus) | MIC90 (Bacteroides ovatus) | MIC (Parabacteroides merdae) | MIC50 (Parabacteroides merdae) | MIC90 (Parabacteroides merdae)
1 µg/mL: MIC90 (Clostridium hathewayi)
≤ 0.12 µg/mL: MIC50 (Clostridium spiroforme) | MIC50 (Flavonifractor plautii) | MIC50 [2] | MIC90 [2] | MIC50 (Clostridium butyricum) | MIC50 [3] | MIC90 [3] | MIC50 [4] | MIC50 (Anaerococcus tetradius) | MIC50 [5] | MIC50 (Clostridium perfringens) | MIC50 (Coriobacterium) | MIC50 [6] | MIC50 (Collinsella aerofaciens) | MIC50 (Clostridium scindens) | MIC50 [7] | MIC50 [8] | MIC50 (Bifidobacterium longum) | MIC50 [9] | MIC50 (Clostridium sporogenes) | MIC50 [10] | MIC90 [10] | MIC50 (Clostridium tertium) | MIC50 [11] | MIC50 (Bifidobacterium breve) | MIC50 (Clostridium leptum) | MIC50 [13] | MIC (Ruminococcus obeum) | MIC50 (Ruminococcus obeum) | MIC90 (Ruminococcus obeum) | MIC50 (Clostridium sp.) | MIC50 (Eggerthella lenta) | MIC50 (Finegoldia magna) | MIC50 (Blautia producta) | MIC90 (Blautia producta)
8 µg/mL: MIC50 [1] | MIC50 (Prevotella intermedia) | MIC50 (Prevotella denticola) | MIC50 (Hoylesella oralis) | MIC50 (Prevotella buccae)
